The record followed here is PMC11219871, “Epigenetic-based differentiation therapy for Acute Myeloid Leukemia” (Nature Communications, 2024).

The structures appear in SMILES notation. Several values for one entry are separate records, joined by “and”; a condition that tells them apart may be missing. Equal values may be shown once. Read-outs that look alike come from different tables or passages of the source.

What all share (format): cell-based, human
Series [1] has as its system HL-60. The experiment in a line: Cell proliferation assay: GI50. The note with it: read-out: GI50. Here is the method: (§1) Cell proliferation was analyzed using the CellTiter 96 Aqueous One Solution Cell Proliferation Assay (Promega, Madison, WI). This is a colorimetric method for determining the number of viable cells in proliferation. For the assay, suspension cells were cultured in triplicate at a density of 1 × 10^6 cells/mL in 96-well plates (100.000 cells/well, 100 µL/well), using only the 60 inner wells to avoid any border effects. […] Then, the cells were incubated with 100 μL/well of medium and 20 μL/well of CellTiter 96 Aqueous One Solution reagent for 1–3 h. […] The background absorbance was measured in wells with only cell line medium and solution reagent. First, the average of the absorbance from the control wells was subtracted from all other absorbance values. Data were calculated as the percentage of total absorbance of treated cells/absorbance of non-treated cells. The GI50 values of the different compounds were determined using non-linear regression plots made with GraphPad Prism v5 software.

Series [2] relates to ML-2. The experiment in a line: Cell proliferation assay: GI50. On the procedure: as §1
For series [3], the system named is MOLM-13. The experiment in a line: Cell proliferation assay: GI50. Here is the method: as §1
For series [4], the system named is MV4-11. The experiment in a line: Cell proliferation assay: GI50. On the procedure:
as §1

The test system of series [5] is HL-60. The experiment in a line: Differentiation-apoptosis assay, CD11b / annexin-V / Sytox Green / myeloid markers flow cytometry. Also noted: Cell viability (%): concentration or dose not given beside the values; CD11b levels: unit not given here. Here is the method:
Next, the cells were washed twice with phosphate-buffered saline (PBS) and resuspended in 1X Binding Buffer at a concentration of 1 × 10^6 cells/mL. […] Finally, after the addition of 400 µL of 1X Binding Buffer to each tube, samples were collected on a BD FACSCanto flow cytometer (Becton Dickinson, San Jose, CA, USA) and analyzed using FlowJo software.
Then, 1 million cells (volume of 250 µL) were added and incubated for 30 min at room temperature in darkness. After 10 min incubation at room temperature with 2 mL of FACSLysing 1X, cells were centrifuged at 540 g for 5 min and washed twice with FACSBuffer. Finally, after centrifugation at 540 g for 5 min cells were resuspended in FACSBuffer.

The subject of series [6] is ML-2. Described as above. Further details: Cell viability: concentration or dose not given beside the values; CD11b levels: unit not given here. Here is the method:
(§2) Next, the cells were washed twice with phosphate-buffered saline (PBS) and resuspended in 1X Binding Buffer at a concentration of 1 × 10^6 cells/mL. An 8-µL aliquot of APC-CD11b (BD Pharmingen, Franklin Lakes, NJ, USA) and 1 µL of FITC annexin-V (AV) (BD Pharmingen, Franklin Lakes, NJ, USA) antibodies were added and incubated for 15 min at room temperature in the dark. Finally, after the addition of 400 µL of 1X Binding Buffer to each tube, samples were collected on a BD FACSCanto flow cytometer (Becton Dickinson, San Jose, CA, USA) and analyzed using FlowJo software.
(§3) For the rest of experiments, the mix of antibodies (2 µL of BV786-CD13, Cat No, 744748 BD; 1 µL of diluted 1:10 antibody of PB-HLADR, Cat No 307633, Biolegend; 5 µL of APCH7-CD14, Cat No 641394, BD) was added to 10 µL of Brilliant Stain Buffer Plus (Becton Dickinson, San Jose, CA, USA). Then, 1 million cells (volume of 250 µL) were added and incubated for 30 min at room temperature in darkness. After 10 min incubation at room temperature with 2 mL of FACSLysing 1X, cells were centrifuged at 540 g for 5 min and washed twice with FACSBuffer. Finally, after centrifugation at 540 g for 5 min cells were resuspended in FACSBuffer.

Series [7] has as its system MOLM-13. The description is as above. Also noted: Cell viability (%): concentration or dose not given beside the values; CD11b levels: unit not given here. Here is the method:
as §2, §3

Series [8] deals with MV4-11. Described as above. Further details: Cell viability (%): concentration or dose not given beside the values; CD11b levels: unit not given here. On the procedure: as §2, §3
Series [9] concerns HL-60. The experiment in a line: q-RT-PCR of MYC, CDKN2A, CDKN1A, GATA2, TAL1, CEBPA, SPI1. The note with it: HL-60 treated daily for 48 h; replicates (Fig 6F). Here is the method:
(§4) RNA was extracted with TRIzol Reagent (Invitrogen) according to the manufacturer’s instructions. First, cDNA was synthesized from 1 µg of total RNA using the PrimeScript RT reagent Kit (Perfect Real Time) (Cat No RR037A, TaKaRa) following the manufacturer’s instructions. The quality of cDNA was checked by a multiplex PCR that amplifies PBGD, ABL, BCR and β2-MG genes. […] The following program conditions were used for the q-PCR: 50 °C for 2 min, 95 °C for 60 s following by 45 cycles at 95 °C for 15 s and 60 °C for 60 s; melting program, one cycle at 95 °C for 15 s, 40 °C for 60 s, and 95 °C for 15 s. The relative expression of each gene was quantified by the […] method using the gene GUS as an endogenous control. The sequence of primers used can be found in Supplementary Table 10.

For series [10], the system named is ML-2. The description is as above. The settings on record: ML-2 treated daily for 48 h; replicates (Fig 6G). On the procedure:
as §4

The test system of series [11] is MOLM-13. The series is described as above. The settings on record: MOLM-13, daily treatment for 48 h, replicates 1-3. Here is the method:
as §4

The test system of series [12] is MV4-11. The description is as above. The settings on record: MV4-11, daily treatment for 48 h, replicates 1-3. On the procedure:
as §4

The mark [13] stands for this setting: HL-60, replicates 1-3, µM for the other inhibitors.
The mark [14] stands for this setting: ML-2, replicates 1-3, µM for the other inhibitors.
Setting [15] is: MOLM-13, replicates 1-3, µM for the other inhibitors.
The mark [16] stands for this setting: MV4-11, replicates 1-3, µM for the other inhibitors.
Setting [17] is: HL-60, 48 h treatment, replicates 1-3 (Suppl. Fig. 5A).
Where [18] appears, read: ML-2, 48 h, replicates (Fig 4A).
Where [19] appears, read: MOLM-13, 48 h treatment, replicates 1-3 (Suppl. Fig. 5A).
Setting [20] is: MV4-11, 48 h treatment, replicates 1-3 (Suppl. Fig. 5A).

For `Cc1sc2c(c1C)C(c1ccc(Cl)cc1)=N[C@@H](CC(=O)OC(C)(C)C)c1nnc(C)n1-2` [JQ1, reference compound], the GI50 – broadly, the concentration giving 50% growth inhibition – was greater than 10 µM in the series on HL-60 [1] (HL-60, 48 h); greater than 10 µM with HL-60 [1] (setting [13]); greater than 10 µM in the series with ML-2 [2] (ML-2, 48 h); greater than 10 µM in the series on ML-2 [2] (setting [14]); greater than 10 µM with MOLM-13 [3] (MOLM-13, 48 h); greater than 10 µM with MOLM-13 [3] (setting [15]). The GI50 with MV4-11 [4] (MV4-11, 48 h) was greater than 10 µM; with MV4-11 [4] (setting [16]), greater than 10 µM. For the same compound, the CD11b levels was 14.4 and 10.4 and 18.9 with HL-60 [5] (HL-60 treated daily for 48 h, replicates (Fig 6D)); 12.1 and 9.5 and 15.4 in the series on ML-2 [6] (ML-2 treated daily for 48 h, replicates (Fig 6E)); 22.1 and 20.7 and 18.1 with MOLM-13 [7] (MOLM-13, daily treatment for 48 h, replicates 1-3 (Suppl. Fig. 9A)); 12.1 and 10.6 and 16.7 in the series on MV4-11 [8] (MV4-11, daily treatment for 48 h, replicates 1-3 (Suppl. Fig. 9A)). The “q-PCR of CEBPA” value in the series with HL-60 [9] is -0.3248 log10 (2-ΔΔCt) and -0.277 log10 (2-ΔΔCt) and -0.3773 log10 (2-ΔΔCt); with ML-2 [10] it was 0.003145 log10 (2-ΔΔCt) and -0.05186 log10 (2-ΔΔCt) and 0.00217 log10 (2-ΔΔCt). Besides, the “q-PCR of GATA2” value with HL-60 [9] was -0.4169 log10 (2-ΔΔCt) and -0.4604 log10 (2-ΔΔCt) and -0.5063 log10 (2-ΔΔCt); in the series on ML-2 [10], -0.7948 log10 (2-ΔΔCt) and -0.4733 log10 (2-ΔΔCt) and -0.5146 log10 (2-ΔΔCt). Moreover, the “q-PCR of MYC” value with HL-60 [9] is -1.0533 log10 (2-ΔΔCt) and -1.072 log10 (2-ΔΔCt) and -1.203 log10 (2-ΔΔCt); in the series on ML-2 [10], -1.0744 log10 (2-ΔΔCt) and -1.048 log10 (2-ΔΔCt) and -1.0236 log10 (2-ΔΔCt). Besides, the “q-PCR of SPI1” value in the series with HL-60 [9] is 0.1686 log10 (2-ΔΔCt) and 0.1558 log10 (2-ΔΔCt) and 0.1908 log10 (2-ΔΔCt); in the series with ML-2 [10], -0.3978 log10 (2-ΔΔCt) and -0.4936 log10 (2-ΔΔCt) and -0.3253 log10 (2-ΔΔCt). The “q-PCR of TAL1” value was 0.3073 log10 (2-ΔΔCt) with HL-60 [9]; -0.9571 log10 (2-ΔΔCt) and -0.8702 log10 (2-ΔΔCt) and -0.7161 log10 (2-ΔΔCt) in the series on ML-2 [10]. The “q-PCR of CEBPA, log10 (2-ΔΔCt)” value in the series on MOLM-13 [11] is -0.258 and -0.1482 and -0.3669; in the series on MV4-11 [12] it was 0.0684 and 0.023 and -0.05782. For the same compound, the “q-PCR of GATA2, log10 (2-ΔΔCt)” value with MOLM-13 [11] was -0.2598 and -0.4259 and -0.3898; in the series with MV4-11 [12], -0.3858 and -0.3755 and -0.4115. The “q-PCR of MYC, log10 (2-ΔΔCt)” value in the series with MOLM-13 [11] is -0.7137 and -0.6985 and -0.8216; in the series with MV4-11 [12], -0.6192 and -0.5693 and -0.4576. In addition, the “q-PCR of SPI1, log10 (2-ΔΔCt)” value in the series on MOLM-13 [11] was -0.9325 and -0.8224 and -0.9326; with MV4-11 [12], -0.1789 and -0.2041 and -0.25. The “q-PCR of TAL1, log10 (2-ΔΔCt)” value was -0.4726 and -0.5813 and -0.6816 with MOLM-13 [11]; -1.126 and -0.6585 and -1.208 in the series on MV4-11 [12].
Consider `CN1CCc2c(c3ccccc3n2Cc2ccc(C(=O)NO)cc2)C1` [Tubastatin, reference compound], for which the GI50 is greater than 10 µM in the series on HL-60 [1] (HL-60, 48 h); greater than 10 µM with HL-60 [1] (setting [13]); greater than 10 µM in the series with ML-2 [2] (ML-2, 48 h); greater than 10 µM in the series with ML-2 [2] (setting [14]); greater than 10 µM with MOLM-13 [3] (MOLM-13, 48 h); greater than 10 µM in the series with MOLM-13 [3] (setting [15]). Besides, the GI50 was greater than 10 µM in the series on MV4-11 [4] (MV4-11, 48 h) and greater than 10 µM in the series with MV4-11 [4] (setting [16]). Besides, the “CD11b (%)” value with HL-60 [5] (setting [17]) was 26.8% and 22.6% and 20.1%; with MOLM-13 [7] (setting [19]) it was 29.6% and 36.5% and 39.8%; in the series on MV4-11 [8] (setting [20]) it was 9.3% and 10.2% and 12.6%. For the same compound, the “Cell viability (%)” value is 69.4% and 76.8% and 76.1% with HL-60 [5] (setting [17]); 74.1% and 65.3% and 78.4% in the series with MOLM-13 [7] (setting [19]); 89.7% and 84.3% and 92.1% in the series with MV4-11 [8] (setting [20]). The CD11b in the series with ML-2 [6] (setting [18]) was 28.3% and 27.1% and 25.0%. Also, the Cell viability with ML-2 [6] (setting [18]) was 83.1% and 89.7% and 79.2%.
